The values below are quoted from earlier work in patent US20090325807A1, “Method of Improving Plant Growth” (Bayer Cropscience AG, priority 2004, published 2009).

The subject of this data set is cucumis melo L. The settings on record: in the absence of insects.

For the molecule `O=[N+]([O-])NC1=NCCN1Cc1ccc(Cl)nc1` [imidacloprid, Imidacloprid], the growth effect result is on record as “no growth effect”.
